Publication PMC11955804, “Histidine-rich enantiomeric peptide coacervates enhance antigen sequestration and presentation to T cells” (Chemical Science, 2025)

Assays:
HEK293T cells = test: eGFP plasmid DNA transfection; type: cell-based; details: coacervates loaded with eGFP DNA plasmid 2.5 μg/mL; qualitative microscopy after 96 h
Procedure: findings were not OVA-specific.
Reserve University) 14,15.
Cytotoxicity and transfection assays
Untreated cells or ethanol treated cells served as controls. Cytotoxicity of all inhibitors was evaluated similarly. For transfection studies, […]
Biosystems, Catalog number: 4060; 2.5 μg/mL). Cells treated with the naked plasmid or […]
complexed with lipofectamine 2000 (3.2 µL) served as controls. GFP expression was assessed qualitatively after 96 h using a Lionheart FX automated microscope (BioTek Instruments, Inc.).
We employed TrueCut Cas9 protein for the knockout of CD55 gene using CRISPR technology, aided with chiral (GHGXY)4 peptide coacervates. The transfection of the Cas9 RNPs (protein + gRNA) was done according to manufacturer’s protocol (Invitrogen). Briefly, A549 cells were cultured in complete DMEM media (supplemented with 10% FBS and 5% Pen Strep) in T-75 flask till full confluency. Cells were then plated at a concentration of 2×10^4 cells/mL in 24 well […]
plates in DMEM media for 24 h. […]
confluent. For positive control, we mixed the TrueCutTM Cas9 protein/sgRNA in Opti-MEM media (17.8 μL) at a concentration of 12.50 μg (75 pmol; Stock 0.5 mg/mL) and 2.4 μg (75 pmol; Stock 1 nmol) for protein and sgRNA respectively, containing 50 μL LipofectamineTM Cas 9 PlusTM reagent (Total Volume: 100 μL) in a RNAse -free microcentrifuge tube. […]

[1] = Rheology testing of coacervate suspensions; type: physicochemical
Procedure: NaCl) was used to study ionic strength effects. The absorbance was further converted to turbidity using methods previously described 1 and data was plotted as relative turbidity.
Optical microscopy and dynamic light scattering (DLS)
Droplets were visualized in 1×PBS using NCI Leica DMC4500 microscope in reflection mode with differential interference contrast. Images were captured with a DMC4500 camera under the control of Leica LAS X software (version 3.4.2). Coacervate size was measured using 1 mM peptide solutions (1×PBS, pH 7.4) on a ZEN 3600 Zetasizer (Malvern Instruments, UK) using DLS-Zen 0040 specialized cuvettes. The results were reported as the means of three measurements, with 14 scans for each measurement.
Transmission electron microscopy (TEM)
Peptide solutions prepared for TEM were applied directly to 200-mesh, carbon-coated copper grids for 2 min and stained with 1% uranyl formate for 1 min. Excess stain was blotted using filter paper. Brightfield images were taken with a JEOL JEM-1400 transmission electron microscope with a NANOSPRT15 camera at an accelerating voltage of 120 kV.
Viscosity of the peptide solutions (1 mM or 2 mM) was tested using an ARES 2000ex rotational rheometer (TA Instruments, New Castle, DE). Peptides were freshly solubilized, and 170 µL of each was pipetted onto the rheometer stage. A 20-mm parallel plate geometry was lowered to a gap of 200 µm. Storage modulus (G′) and loss modulus (G″) were measured as a function of angular frequency (1–10 rad/s) with 1% strain. Viscosity was measured as a function […]
of shear rate (1–100 s-1). Separately, viscosity was measured using a Hagen-Poiseuille viscometer (RheoSense microVISC, San Ramon, CA) at a shear rate of 2500 s-1 to confirm viscosity differences at two different concentrations (1 mM and 2 mM).
Computational simulations
All simulations were performed using GROMACS 2023 2,3 and the CHARMM36m 4 force field. The necessary force field parameters and input files were generated using AlphaFold 5 predicted structures coupled with CHARMM-GUI 6. A single peptide chain was solvated in a 5-nm cubic box. […]

[2] = angular frequency 1–10 rad/s, 1% strain

| Substance | eGFP expression after plasmid delivery (HEK293T cells) | fold increase in G′ compared to valine droplets [1, 2] | viscosity of coacervate suspension ([1]; parallel plate rheology at fixed shear rate, 1 or 2 mM peptide, compared to valine or proline variants) | fold increase in G′ compared to proline [1, 2] |
| --- | --- | --- | --- | --- |
| (GHGLY)4 [GL 20] | robust eGFP expression | ~3 fold | greater viscosity | – |
| (GHGVY)4 [GV 20] | Poor eGFP expression | – | – | 2 fold |
